Assay results: US12403184B2, “Compositions and methods for treating neurodegenerative disroders” (priority 2018, dated 2025)
Where no end group is shown, it is not given here.

Assays:
Drp1/ATAD3A = target: T1, Drp1/ATAD3A (Mus musculus, UniProt Q925I1); assay: Immunoprecipitation of Drp1/ATAD3A binding in mouse striatal cells; assay type: cell-based
T1 construct: The total lysates of cells or mouse striatum were subject to IP analysis; endogenous in cells; host or cells: HdhQ7 / HdhQ111 mouse striatal cells; wild-type mouse striatal cells exposed to 3-NP
T1 sequence (Q925I1 2-591 limits assumed): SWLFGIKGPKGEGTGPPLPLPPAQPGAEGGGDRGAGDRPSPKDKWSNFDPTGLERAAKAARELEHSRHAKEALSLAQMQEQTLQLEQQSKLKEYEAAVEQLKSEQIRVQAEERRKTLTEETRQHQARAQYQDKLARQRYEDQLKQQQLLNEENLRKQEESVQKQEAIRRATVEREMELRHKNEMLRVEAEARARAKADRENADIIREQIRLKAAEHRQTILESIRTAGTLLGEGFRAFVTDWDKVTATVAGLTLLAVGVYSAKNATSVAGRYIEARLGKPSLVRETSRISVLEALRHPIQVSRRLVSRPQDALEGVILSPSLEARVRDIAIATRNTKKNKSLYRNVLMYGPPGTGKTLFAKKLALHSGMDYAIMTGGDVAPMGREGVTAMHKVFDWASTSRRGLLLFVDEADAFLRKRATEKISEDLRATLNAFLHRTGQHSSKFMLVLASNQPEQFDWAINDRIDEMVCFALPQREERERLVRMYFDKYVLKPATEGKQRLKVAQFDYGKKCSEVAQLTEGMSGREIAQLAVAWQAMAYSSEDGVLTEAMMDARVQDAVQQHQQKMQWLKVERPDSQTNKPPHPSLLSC
Procedure: Cells and mouse brain tissues were harvested and lysed in total lysis buffer ([…], pH 7.9, […], […], 1% Triton X-100, and protease inhibitor cocktail) for 30 mins on ice and centrifuged at 12,000×g for 10 min at 4° C. The supernatants were incubated with the indicated primary antibodies or control IgG (sc-2025 and sc-2027, Santa Cruz Biotechnology) overnight at 4° C., followed by incubation with protein A/G beads (sc-2003, Santa Cruz Biotechnology) for 2 h at 4° C. The immunoprecipitates were washed with lysis buffer three times for a total of 30 min and then subject to WB analysis.

ATAD3A = target: T2, ATAD3A (Mus musculus, UniProt Q925I1); assay: ATAD3A dimerization by western blot, Neuro2A cells; assay type: cell-based; conditions: Neuro2a cells exposed to 3-NP, non-reducing conditions
T2 construct: endogenous in cells; host or cells: Neuro2A cells
T2 sequence (Q925I1 1-591): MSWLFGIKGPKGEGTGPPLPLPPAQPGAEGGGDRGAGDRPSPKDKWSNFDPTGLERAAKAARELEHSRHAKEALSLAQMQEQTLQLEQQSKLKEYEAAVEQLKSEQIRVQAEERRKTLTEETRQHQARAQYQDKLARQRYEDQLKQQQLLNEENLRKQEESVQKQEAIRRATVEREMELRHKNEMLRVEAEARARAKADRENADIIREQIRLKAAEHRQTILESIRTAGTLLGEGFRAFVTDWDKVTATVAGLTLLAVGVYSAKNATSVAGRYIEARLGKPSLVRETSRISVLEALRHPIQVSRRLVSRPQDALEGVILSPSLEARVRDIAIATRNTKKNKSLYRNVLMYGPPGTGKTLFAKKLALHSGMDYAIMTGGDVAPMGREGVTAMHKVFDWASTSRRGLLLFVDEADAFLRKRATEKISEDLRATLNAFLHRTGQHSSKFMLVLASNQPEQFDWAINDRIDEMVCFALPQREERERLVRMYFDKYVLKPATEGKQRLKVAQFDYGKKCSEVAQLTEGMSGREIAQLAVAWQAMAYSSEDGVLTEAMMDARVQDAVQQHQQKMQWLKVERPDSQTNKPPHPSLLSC
Procedure: To analyze dimerization of ATAD3A under non-reducing conditions, the cells or tissues were harvested and lysed with total lysates buffer. An equal amount of proteins was subject to 8% SDS-PAGE analysis in the presence or absence of β-mercaptoethanol (β-ME). For in vitro BMH crosslinking, the cell lysates were incubated with 1 mM BMH at r.t. for up to 25 min and quenched with 0.1% β-ME, followed by SDS-PAGE analysis. For in-vivo crosslinking, the cells were treated with cell-permeable crosslinker BMH (1 mM) for 20 min at 37° C. After crosslinking, the cells were quenched in PBS with 0.1% β-ME. For DSP crosslinking, the cells were treated with cell-permeable crosslinker for 5 min at 37° C., followed by quenching and washing with 10 mM Glycine in PBS. For formaldehyde (FA) crosslinking, the cells were incubated with PBS buffer containing 1% FA for 20 min at r.t., and the crosslinking reaction was terminated by washing in PBS containing 100 mM glycine. The cells were then lysed and subject to 8% SDS-PAGE analysis. For DTSSP crosslinking of proteins in mitochondrial fractions, isolated mitochondria samples were suspended in the mitochondrial lysis buffer (250 mM sucrose, 20 mM HEPES-NaOH, pH 7.5, 10 mM KCl, 1.5 mM MgCl2, 1 mM EDTA, 1 mM EGTA and protease inhibitor). An equal amount of crude mitochondria was incubated at 30° C. in the presence of 0.5 mM DTSSP. […]

Compound: O=C(O)CC[N+](=O)[O-] [3-NP, 3-nitropropionic acid, reference compound]
- interaction between Drp1 and ATAD3A (Drp1/ATAD3A; wildtype mouse striatal cells, 3-NP 5 mM for 4 h): induced
- ATAD3A dimerization (ATAD3A): increased

Compound: YGRKKRRQRRR-GG-EERRKT-NH2 (YGRKKRRQRRRGGEERRKT-NH2) [DA2, peptide from ATAD3A coiled-coil region homologous to Drp1, conjugated to TAT47-57]
- binding of Drp1/ATAD3A (Drp1/ATAD3A; HdhQ111 cells, peptide 1 μM/day for 4 days, vs TAT): a trend toward inhibition
